# Reference: patent publication US20140303092A1 (CHIMERIX, INC., priority 2011, published 2014)
# Assay: Study HDP-CDV-201: safety and tolerability (adverse events, laboratory abnormalities, discontinuations)
# Format: in vivo, human (adult allogeneic HSCT recipients)
# Protocol: Clinical Studies of HDP-CDV were performed and described in detail in the following Examples. For example, HDP-CDV-201 is a placebo-controlled, dose-escalating trial in HSCT CMV (R+) recipients, evaluating the ability of HDP-CDV to prevent or control CMV infection was carried out. Five cohorts were established in which participants or subjects received either placebo or the HDP-CDV orally, in doses ranging from 40 mg weekly (QW) to 200 mg twice weekly (BIW). Subjects who were post-HSCT were enrolled at the time of engraftment and randomized to HDP-CDV or placebo (3 to 1 ratio) and received blinded therapy until approximately 100 day post-transplantation. HDP-CDV doses were 40 mg QW, 100 mg QW, 200 mg QW, 200 mg BIW and 100 mg BIW. Escalation to the next dose was decided by the data monitoring committee after review of the safety data from the previous Cohort. Subjects who developed CMV disease or CMV infection requiring pre-emptive therapy with local standard of care were discontinued from blinded therapy and followed for 4 weeks. Subjects who completed treatment with blinded therapy were followed for 8 weeks post-therapy.
# Data from Study HDP-CDV-201 also provided characterization of the safety and tolerability profile of HDP-CDV when administered for the prevention or control of CMV infection in high risk (R^+) post-HSCT adult subjects.
# The Safety population (SAFETY) included all randomized subjects who took at least one dose of study treatment. This population was used to summarize safety outcomes based on the treatment actually received, in cases where a subject was treated contrary to the randomization schedule.
# The safety and tolerability profile of HDP-CDV, including subject demographics and Baseline characteristics; the AE profile; and laboratory abnormalities of interest were analyzed in the cohorts followed in this investigation.
# Subjects completing the treatment period received a full course of study medication; those completing the entire study attended visits through 8 weeks of follow up. Subjects who discontinued treatment may have done so for protocol specified reasons (e.g. development of clinically significant CMV infection requiring preemptive treatment with excluded anti-CMV medications) or for other reasons (e.g., withdrawal, adverse events, loss to follow-up). The disposition of subjects in Study HDP-CDV-201 during the double-blind, placebo-controlled treatment period (through Week 11) is listed by dosing Cohort in TABLE 23.
# Adverse events were examined by severity to ensure that all safety signals were identified in this study population. Because of the frequency of events in HSCT recipients, particular attention was given to evaluation of Grade 3 […], 4 (severe), and 5 (fatal) adverse events.
# Only those preferred terms for which at least one Grade 3 or higher event was experienced in any treatment group are listed. Cytomegalovirus-related AEs are excluded from this analysis.
# HDP-CDV is a lipid conjugate of CDV. Because CDV is known to have adverse effects on renal function and bone marrow, decreased GFR and persistent neutropenia were identified as AEs of special interest. Key renal and hematological (TABLE 30) laboratory parameters were measured and listed below by Study HDP-CDV-201 treatment groups. TABLE 30 includes abnormal levels of serum creatinine, neutrophils, platelets, WBCs, and hemoglobin and includes data at Screening and during the treatment period.
# A common metric for unit based dosing of medications is by weight (mg/kg). When the distribution of weights was examined for all subjects participating in the study, the median was 78 kg and the lower 25th percentile weight was approximately 65 kg, which translates to a cut-off of ˜3 mg/kg for a 200 mg total weekly dose. Based upon this approach, a cut-off of 3 mg/kg was used to assess the frequency of diarrhea and associated GI AEs reported for the subjects in Cohorts 3 or 4a (TABLE 40).
# [1] = Cohort 1, 40 mg QW, through Week 11
smiles,measurement,setting,value
CCCCCCCCCCCCCCCCOCCCOP(=O)(O)COC(CO)Cn1ccc(N)nc1=O (stereo not drawn) [HDP-CDV],"Gastrointestinal AE Abdominal discomfort, subjects","Cohort 1, 40 mg QW",0
same,"Gastrointestinal AE Abdominal distention, subjects","Cohort 1, 40 mg QW",2 (8.0%)
same,"Gastrointestinal AE Abdominal pain upper, subjects","Cohort 1, 40 mg QW",1 (4.0%)
same,"Gastrointestinal AE Abdominal pain, subjects","Cohort 1, 40 mg QW",4 (16.0%)
same,"Gastrointestinal AE Constipation, subjects","Cohort 1, 40 mg QW",1 (4.0%)
same,"Gastrointestinal AE Diarrhoea, subjects","Cohort 1, 40 mg QW",3 (12.0%)
same,"Gastrointestinal AE Diverticulum intestinal haemorragic, subjects","Cohort 1, 40 mg QW",0
same,"Gastrointestinal AE Dyspepsia, subjects","Cohort 1, 40 mg QW",3 (12.0%)
same,"Gastrointestinal AE Dysphagia, subjects","Cohort 1, 40 mg QW",0
same,"Gastrointestinal AE Epigastric discomfort, subjects","Cohort 1, 40 mg QW",1 (4.0%)
same,"Gastrointestinal AE Flatulence, subjects","Cohort 1, 40 mg QW",0
same,"Gastrointestinal AE GERD, subjects","Cohort 1, 40 mg QW",2 (8.0%)
same,"Gastrointestinal AE Gastritis, subjects","Cohort 1, 40 mg QW",0
same,"Gastrointestinal AE Haematochezia, subjects","Cohort 1, 40 mg QW",1 (4.0%)
same,"Gastrointestinal AE Haemorroids, subjects","Cohort 1, 40 mg QW",1 (4.0%)
same,"Gastrointestinal AE Large intestinal ulcer, subjects","Cohort 1, 40 mg QW",1 (4.0%)
same,"Gastrointestinal AE Nausea, subjects","Cohort 1, 40 mg QW",6 (24.0%)
same,"Gastrointestinal AE Odynophagia, subjects","Cohort 1, 40 mg QW",0
same,"Gastrointestinal AE Oesophagitis, subjects","Cohort 1, 40 mg QW",1 (4.0%)
same,"Gastrointestinal AE Retching, subjects","Cohort 1, 40 mg QW",0
same,"Gastrointestinal AE Vomiting, subjects","Cohort 1, 40 mg QW",2 (8.0%)
same,"Hepatobiliary clinical AE Cholelithiasis, subjects","Cohort 1, 40 mg QW",1 (4.0%)
same,"Hepatobiliary clinical AE Hepatomegaly, subjects","Cohort 1, 40 mg QW",0
same,"Hepatobiliary clinical AE Hyperbilirubinaemia, subjects","Cohort 1, 40 mg QW",1 (4.0%)
same,"Hepatobiliary clinical AE Jaundice, subjects","Cohort 1, 40 mg QW",0
same,"Hepatobiliary clinical AE Liver injury, subjects","Cohort 1, 40 mg QW",0
same,"Intensity of Gastrointestinal AEs, Grade 1, subjects","Cohort 1, 40 mg QW",9 (36.0%)
same,"Intensity of Gastrointestinal AEs, Grade 2, subjects","Cohort 1, 40 mg QW",6 (24.0%)
same,"Intensity of Gastrointestinal AEs, Grade 3, subjects","Cohort 1, 40 mg QW",2 (8.0%)
same,"Intensity of Gastrointestinal AEs, Grade 4, subjects","Cohort 1, 40 mg QW",0
same,"Intensity of Gastrointestinal AEs, Grade 5, subjects","Cohort 1, 40 mg QW",0
same,"Serum ALT level, Median fold increase from Baseline at Follow-up Week 1","Cohort 1, 40 mg QW",1.50 fold
same,"Serum ALT level, Median fold increase from Baseline at Follow-up Week 4","Cohort 1, 40 mg QW",1.00 fold
same,"Serum ALT level, Peak Median fold increase from Baseline","Cohort 1, 40 mg QW",1.80 fold
same,Subjects completed study,"Cohort 1, 40 mg QW",7 (28.0%) n (%)
same,"Total Bilirubin (Screening) >1-[…] ULN, subjects","Cohort 1, 40 mg QW",1 (4.0%)
same,"Total Bilirubin (Screening) >1.5-3 × ULN, subjects","Cohort 1, 40 mg QW",3 (12.0%)
same,"Total Bilirubin (Screening) >3-10 × ULN, subjects","Cohort 1, 40 mg QW",0
same,"Total Bilirubin (Screening) >10 × ULN, subjects","Cohort 1, 40 mg QW",0
same,"Total Bilirubin (any time during therapy) >1-[…] ULN, subjects","Cohort 1, 40 mg QW",3 (13.0%)
same,"Total Bilirubin (any time during therapy) >1.5-3 × ULN, subjects","Cohort 1, 40 mg QW",1 (4.3%)
same,"Total Bilirubin (any time during therapy) >3-10 × ULN, subjects","Cohort 1, 40 mg QW",0
same,"Total Bilirubin (any time during therapy) >10 × ULN, subjects","Cohort 1, 40 mg QW",0
same,Abdominal pain leading to study drug withdrawal,"Cohort 1, 40 mg QW, N = 25",0%
same,All AEs leading to withdrawal,"Cohort 1, 40 mg QW, N = 25",15 (60.0%)
same,Diarrhoea leading to study drug withdrawal,"Cohort 1, 40 mg QW, N = 25",0%
same,Dyspepsia leading to study drug withdrawal,"Cohort 1, 40 mg QW, N = 25",0%
same,Nausea leading to study drug withdrawal,"Cohort 1, 40 mg QW, N = 25",0%
same,TEAE ALT increased,"Cohort 1, 40 mg QW, N = 25",2 (8.0%) n (%)
same,TEAE AST increased,"Cohort 1, 40 mg QW, N = 25",1 (4.0%) n (%)
same,TEAE Abdominal pain,"Cohort 1, 40 mg QW, N = 25",4 (16.0%) n (%)
same,"TEAE Abdominal pain, Upper","Cohort 1, 40 mg QW, N = 25",1 (4.0%) n (%)
same,TEAE Acute GVHD,"Cohort 1, 40 mg QW, N = 25",6 (24.0%) n (%)
same,TEAE Acute Myeloid Leukemia recurrent,"Cohort 1, 40 mg QW, N = 25",3 (12.0%) n (%)
same,TEAE Acute Renal Failure,"Cohort 1, 40 mg QW, N = 25",2 (8.0%) n (%)
same,TEAE Anxiety,"Cohort 1, 40 mg QW, N = 25",0 n (%)
same,TEAE Arthralgias,"Cohort 1, 40 mg QW, N = 25",0 n (%)
same,TEAE Back Pain,"Cohort 1, 40 mg QW, N = 25",0 n (%)
same,TEAE Blood lactate dehydrogenase increased,"Cohort 1, 40 mg QW, N = 25",0 n (%)
same,TEAE Creatinine increased,"Cohort 1, 40 mg QW, N = 25",0 n (%)
same,TEAE Cytomegalovirus viremia,"Cohort 1, 40 mg QW, N = 25",10 (40.0%) n (%)
same,TEAE Decreased appetite,"Cohort 1, 40 mg QW, N = 25",4 (16.0%) n (%)
same,TEAE Diarrhoea,"Cohort 1, 40 mg QW, N = 25",3 (12.0%) n (%)
same,TEAE Dysgeusia,"Cohort 1, 40 mg QW, N = 25",1 (4.0%) n (%)
same,TEAE Fatigue,"Cohort 1, 40 mg QW, N = 25",1 (4.0%) n (%)
same,TEAE GI Reflux Disease,"Cohort 1, 40 mg QW, N = 25",2 (8.0%) n (%)
same,TEAE Gamma-glutamyltransferase increased,"Cohort 1, 40 mg QW, N = 25",0 n (%)
same,TEAE Generalized oedema,"Cohort 1, 40 mg QW, N = 25",1 (4.0%) n (%)
same,TEAE Hyperbilirubinaemia,"Cohort 1, 40 mg QW, N = 25",1 (4.0%) n (%)
same,TEAE Hyperglycaemia,"Cohort 1, 40 mg QW, N = 25",1 (4.0%) n (%)
same,TEAE Hyperkalemia,"Cohort 1, 40 mg QW, N = 25",1 (4.0%) n (%)
same,TEAE Hypocalcaemia,"Cohort 1, 40 mg QW, N = 25",1 (4.0%) n (%)
same,TEAE Hypokalaemia,"Cohort 1, 40 mg QW, N = 25",4 (16.0%) n (%)
same,TEAE Hyponatraemia,"Cohort 1, 40 mg QW, N = 25",3 (12.0%) n (%)
same,TEAE Increased leukocytosis,"Cohort 1, 40 mg QW, N = 25",1 (4.0%) n (%)
same,TEAE Insomnia,"Cohort 1, 40 mg QW, N = 25",2 (8.0%) n (%)
same,TEAE Liver function test abnormal,"Cohort 1, 40 mg QW, N = 25",0 n (%)
same,TEAE Malnutrition,"Cohort 1, 40 mg QW, N = 25",0 n (%)
same,TEAE Nausea,"Cohort 1, 40 mg QW, N = 25",6 (24.0%) n (%)
same,TEAE Neutropenia,"Cohort 1, 40 mg QW, N = 25",2 (8.0%) n (%)
same,TEAE Oedema peripheral,"Cohort 1, 40 mg QW, N = 25",3 (12.0%) n (%)
same,TEAE Oral Candidiasis,"Cohort 1, 40 mg QW, N = 25",0 n (%)
same,TEAE Pneumonia,"Cohort 1, 40 mg QW, N = 25",1 (4.0%) n (%)
same,TEAE Pyrexia,"Cohort 1, 40 mg QW, N = 25",1 (4.0%) n (%)
same,TEAE Recurrent flatulence,"Cohort 1, 40 mg QW, N = 25",0 n (%)
same,TEAE Renal Failure,"Cohort 1, 40 mg QW, N = 25",1 (4.0%) n (%)
same,TEAE Staphylococcal Bacteremia,"Cohort 1, 40 mg QW, N = 25",0 n (%)
same,TEAE Thrombocytopenia,"Cohort 1, 40 mg QW, N = 25",3 (12.0%) n (%)
same,TEAE Tremor,"Cohort 1, 40 mg QW, N = 25",3 (12.0%) n (%)
same,TEAE Vomiting,"Cohort 1, 40 mg QW, N = 25",2 (8.0%) n (%)
same,Vomiting leading to study drug withdrawal,"Cohort 1, 40 mg QW, N = 25",0%
same,"All AEs, Grade 5 (deaths)","Cohort 1, 40 mg QW, N = 25, entire study duration",2 (8.0%)
same,Subjects completed treatment,[1],9 (36.0%) n (%)
same,Subjects who permanently discontinued treatment,[1],16 (64.0%) n (%)
same,subjects discontinued due to neutropenia,Cohort 2,1 subject(s)
same,"ALT (Screening) >3 × ULN-5 × ULN, subjects","Cohort 2, 100 mg QW",0
same,"ALT (Screening) >5 × ULN-10 × ULN, subjects","Cohort 2, 100 mg QW",0
same,"ALT (Screening) >10 × ULN-20 × ULN, subjects","Cohort 2, 100 mg QW",0
same,"ALT (Screening) >20 × ULN, subjects","Cohort 2, 100 mg QW",0
same,"ALT (any time during therapy) >3 × ULN-5 × ULN, subjects","Cohort 2, 100 mg QW",1 (3.7%)
same,"ALT (any time during therapy) >5 × ULN-10 × ULN, subjects","Cohort 2, 100 mg QW",0
same,"ALT (any time during therapy) >10 × ULN-20 × ULN, subjects","Cohort 2, 100 mg QW",1 (3.7%)
same,"ALT (any time during therapy) >20 × ULN, subjects","Cohort 2, 100 mg QW",0
same,"AST (Screening) >3 × ULN-5 × ULN, subjects","Cohort 2, 100 mg QW",0
same,"AST (Screening) >5 × ULN-10 × ULN, subjects","Cohort 2, 100 mg QW",0
same,"AST (Screening) >10 × ULN-20 × ULN, subjects","Cohort 2, 100 mg QW",0
same,"AST (Screening) >20 × ULN, subjects","Cohort 2, 100 mg QW",0
same,"AST (any time during therapy) >3 × ULN-5 × ULN, subjects","Cohort 2, 100 mg QW",1 (3.7%)
same,"AST (any time during therapy) >5 × ULN-10 × ULN, subjects","Cohort 2, 100 mg QW",0
same,"AST (any time during therapy) >10 × ULN-20 × ULN, subjects","Cohort 2, 100 mg QW",0
same,"AST (any time during therapy) >20 × ULN, subjects","Cohort 2, 100 mg QW",0
